In PubChem BioAssay (NCI):
Values joined by “and” are separate entries in the source; they are usually repeats but may differ in a detail not shown here. Equal entries are not always repeated.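 A five-concentration, 48-hour dose response in 96-well plates underlies each endpoint, interpolated linearly between surrounding concentrations. GI50 = concentration required for 50% inhibition of growth. TGI: concentration producing complete growth inhibition.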

Columns and labels:
Assay in all cases: NCI-60 cell line screen, 48 h
786-0 renal = tested on: 786-0 renal
ACHN renal = tested on: ACHN renal
BT-549 breast = tested on: BT-549 breast
HOP-92 NSCLC = tested on: HOP-92 NSCLC
K-562 leukemia = tested on: K-562 leukemia
M14 melanoma = tested on: M14 melanoma
OVCAR-3 ovarian = tested on: OVCAR-3 ovarian
OVCAR-8 ovarian = tested on: OVCAR-8 ovarian
SR leukemia = tested on: SR leukemia
T-47D breast = tested on: T-47D breast

SMILES	GI50 (786-0 renal) [µM]	TGI (786-0 renal)	GI50 (ACHN renal) [µM]	TGI (ACHN renal)	GI50 (BT-549 breast) [µM]	TGI (BT-549 breast)	GI50 (HOP-92 NSCLC) [µM]	TGI (HOP-92 NSCLC)	GI50 (K-562 leukemia) [µM]	TGI (K-562 leukemia)	GI50 (M14 melanoma) [µM]	TGI (M14 melanoma)	GI50 (OVCAR-3 ovarian) [µM]	TGI (OVCAR-3 ovarian)	GI50 (OVCAR-8 ovarian) [µM]	TGI (OVCAR-8 ovarian)	GI50 (SR leukemia) [µM]	TGI (SR leukemia)	GI50 (T-47D breast) [µM]	TGI (T-47D breast)
COc1cc(/C=C2\C(=O)Nc3ccc(Br)cc32)cc(OC)c1OC	27.2	> 100 µM	31.9	> 100 µM	1.28	19.3 µM	2.68	24.8 µM	1.11	> 100 µM	15.7	> 100 µM	5.59	> 56.9 µM	34.3	> 100 µM	0.304	3.08 µM	3.06	> 100 µM
CCn1c(-c2nonc2N)nc2c(C#CC(C)(C)O)ncc(OC[C@@H]3CCCN3)c21	2.45	> 25 µM	8.76	> 25 µM	4.77	> 22.8 µM	14.5	> 25 µM	9	> 25 µM	6.95	> 25 µM	2.86	9.22 µM	6.4	> 25 µM	8.19	> 20.2 µM	0.408	> 25 µM
COc1ccc(-c2nn(-c3cccc(Cl)c3)cc2-c2cc(-c3cccs3)no2)cc1	3.39	> 100 µM	4.39	> 100 µM	4.99	21.3 µM	1.61	8.13 µM	3.43	> 100 µM	3.3	17.1 µM	5.07	25 µM	4.04	36 µM	3.03	12.1 µM	3.86	25.3 µM
COc1ccc(CNC(=O)c2ccc(-c3cc(-c4nnc(C)o4)ccc3C)cc2)cc1	> 25	> 25 µM	16.3	> 25 µM	13.3	> 25 µM	2.11	> 25 µM	11.2	> 25 µM	> 25	> 25 µM	17.1	> 25 µM	> 25	> 25 µM	> 25	> 25 µM	7.01	> 25 µM
Cc1cc(C)c2nccc(NCCCN(C)C)c2c1[N+](=O)[O-]	–	> 100 µM	–	> 100 µM	–	> 100 µM	–	–	–	> 100 µM	–	33.7 µM	–	> 100 µM	–	> 100 µM	–	> 100 µM	–	> 100 µM
CCCC(=O)Nc1cn(COC)c(C(=O)N2C[C@H]3C[C@@]34C2=CC(=O)c2[nH]cc(C)c24)n1	1.98	–	–	50 µM and > 100 µM	5.51	43.1 µM and 58.9 µM	5.12	26.8 µM and 31.4 µM	7.41	50 µM and > 100 µM	7.14	50 µM and > 100 µM	4.93	24.5 µM and 72 µM	–	14.6 µM and 20.1 µM	–	> 100 µM	2.91	25.4 µM and 34.8 µM
CC(=O)OC1Oc2cc(C)c(C)cc2-c2oc(=O)c(-c3ccccc3)cc21 (stereo not given)	0.429	24.8 µM	1.34	> 100 µM	7.34	> 31.9 µM	1.98	61.8 µM	0.178	> 100 µM	0.351	> 100 µM	0.114	0.355 µM	0.545	> 84.5 µM	0.215	> 100 µM	0.352	> 68.1 µM
COc1cccc(C2CC(=O)Nc3cc4c(cc32)CCC4)c1OC (stereo not given)	4.84	27.9 µM	6.72	> 84 µM	3.57	16.7 µM	0.758	7.83 µM	3.07	37.5 µM	2.59	8.94 µM	2.37	5.9 µM	3.67	31.9 µM	2.87	10.8 µM	5.52	52.3 µM
Cc1ccc(NCCNCC(O)CO)c2c(=O)c3ccccc3sc12 (stereo not given)	1.37	2.79 µM	1.29	3.07 µM	2.47	10.5 µM	1.98	7.81 µM	1.52	3.26 µM	1.55	3.13 µM	2.15	4.7 µM	1.92	4.77 µM	1.55	3.97 µM	1.79	4.08 µM
Cc1cc(C(=O)Nc2cc(Nc3ncccc3-c3ncnc4nc[nH]c34)ccc2F)cc(C(C)(C)C#N)c1	13.9	> 100 µM	1.22	> 100 µM	2.95	> 100 µM	0.145	1.45 µM	0.306	> 100 µM	0.0388	1.12 µM	5.99	> 100 µM	3.02	> 100 µM	1.99	45.3 µM	2.59	> 91.7 µM
CCCCCCCCCCCCCCCCCCNC(=O)[C@H]1CSC(c2ccc(F)c(OC)c2)N1 (stereo not given in full)	1.01	1.91 µM	2.71	> 50 µM	0.974	1.85 µM	1.66	4.61 µM	0.774	2.45 µM	0.713	1.47 µM	–	–	0.976	2.7 µM	0.637	1.91 µM	0.604	1.46 µM
N#CC1=C(N)NC(=S)C(C#N)C12Nc1ccccc1S2 (stereo not given)	25.4	68.9 µM	9.82	29.4 µM	21.7	49.1 µM	60.8	> 100 µM	48.2	> 100 µM	16.1	32 µM	12.6	40.1 µM	27.2	65 µM	78.9	> 100 µM	32.9	98.4 µM
COc1ccc(-c2nc(/C=N/Nc3cc(C)nc4ccc(Br)cc34)c(C)o2)cc1	1.71	3.22 µM	1.73	3.11 µM	1.67	3.11 µM	1.45	3.06 µM	–	–	1.78	3.39 µM	1.84	3.41 µM	1.79	3.86 µM	0.315	1.59 µM	1.78	3.69 µM
CNc1ccc(N=Nc2cccc3ncccc23)cc1	> 88.4	> 100 µM	20.8	> 100 µM	24.4	> 100 µM	24.3	> 100 µM	19.3	> 100 µM	44.3	> 100 µM	–	–	98.1	> 100 µM	16.1	> 88.7 µM	0.0346	> 77.1 µM
Nc1ccc2c(SCC(=O)Nc3ccccc3-c3ccccc3NC(=O)CSc3c4ccccc4nc4cc(N)ccc34)c3ccccc3nc2c1	–	56 µM	–	> 86.6 µM	–	85.1 µM	–	79.9 µM	–	28.3 µM	–	59 µM	–	70.4 µM	–	73.2 µM	–	> 100 µM	–	> 63.3 µM
COc1ccc(-c2nn(-c3cccc(Cl)c3)cc2/C=C2\C(=N)N(c3ccccc3)N=C2N)cc1	1.35	29.9 µM	0.95	42.6 µM	5.75	39.2 µM	22.4	> 81.4 µM	0.352	32.6 µM	0.331	5.42 µM	3.09	20.4 µM	1.12	> 100 µM	1.04	15.1 µM	1.81	> 100 µM
C#CCn1cc(C=C2C(=O)NC(=S)NC2=O)c2cc(Cl)ccc21	2.17	5.04 µM	1.97	4.07 µM	1.91	3.89 µM	1.92	5.26 µM	2.85	> 100 µM	2	4.76 µM	1.64	3 µM	2.72	7.44 µM	–	–	3.04	14.1 µM
O=C1c2c(O)ccc(O)c2C(=O)c2c(NCCNCCO)ccc(NCCNCCO)c21	–	0.13 µM and 0.299 µM and 0.584 µM	–	0.123 µM and 0.783 µM and 0.229 µM	–	0.5 µM and 2.11 µM and 0.54 µM	0.0312	0.773 µM and 0.425 µM and 0.0779 µM	0.142	1.71 µM and 1.78 µM	–	1.77 µM and 0.809 µM and 2.11 µM	0.483	1.87 µM and 1.47 µM and 2.13 µM	–	0.388 µM and 0.414 µM and 0.665 µM	< 0.005	0.102 µM and 0.389 µM and 0.865 µM	–	1.05 µM and 0.652 µM and 1.5 µM
COc1ccc(-c2conc2-c2ccccc2)cc1	1.28	53 µM	1.1	> 100 µM	0.94	12.8 µM	4.58	> 76.4 µM	0.0603	> 100 µM	0.268	> 100 µM	–	–	0.604	> 100 µM	0.155	> 100 µM	0.329	> 100 µM
O=C(Nc1cccc(Cl)c1)c1cc(Cl)ccc1O	1.63	6.18 µM	1.14	10.6 µM	0.362	1.29 µM	0.169	0.571 µM	0.542	> 100 µM	0.851	5.4 µM	1.04	> 100 µM	1.51	5.43 µM	0.457	2.96 µM	1.24	7.38 µM
COC(=O)C1=C(C(=O)OC)C(C(=O)OC)C(C(=O)OC)C(C(=O)OC)(C(=O)OC)C(C(=O)OC)=C1C(=O)OC (stereo not given)	–	26.3 µM	–	28.4 µM	–	32.1 µM	–	18.4 µM	–	22.4 µM	–	29.8 µM	–	28.9 µM	–	25.2 µM	–	3.34 µM	–	50.8 µM
COc1ccccc1-c1nccc(COc2ccccc2C[C@@H](Oc2ncnc3sc(-c4ccc(F)cc4)c(-c4ccc(OCCN5CCN(C)CC5)c(Cl)c4C)c23)C(=O)O)n1	2.01	4.2 µM	5.07	15.3 µM	1.03	2.59 µM	1.41	3.27 µM	3.01	> 33.6 µM	1.73	4.05 µM	2.51	6.99 µM	2.9	> 28.4 µM	0.034	0.714 µM	3.49	23 µM
CCOC(=O)/N=c1\ssc(Cl)c1Cl	12.8	> 100 µM	1.95	4.37 µM	2.77	7.21 µM	5.66	> 100 µM	1.93	> 100 µM	7.44	> 100 µM	6.53	20.9 µM	19.7	55.1 µM	0.414	> 100 µM	17.2	42.6 µM
O=c1c2ccccc2c(=O)c2c1sc1c(=O)c3ccc(O)cc3c(=O)c12	1.8	4.44 µM	0.864	2.38 µM	0.163	0.33 µM	–	–	0.715	> 100 µM	0.0976	0.219 µM	0.263	0.924 µM	1.78	8.31 µM	1.08	> 100 µM	2.04	6.3 µM
CCOc1cccc(/C=N/NC(=O)Cc2ccc(Nc3ccnc(C(F)(F)F)c3)cc2)c1O	2.85	74.9 µM	1.53	> 100 µM	2.34	46.3 µM	1.9	9.93 µM	2.25	15 µM	1.79	15.8 µM	0.394	30.4 µM	3.27	> 100 µM	0.316	10.8 µM	2.43	26 µM
N#Cc1c(-c2ccc(Cl)cc2)csc1NC(=O)Nc1cccc(C(F)(F)F)c1	2	4.85 µM	2.23	6.51 µM	2.62	9.23 µM	2.34	5.93 µM	2.97	12.2 µM	2.88	10.1 µM	2.73	11.2 µM	–	–	2.41	8.41 µM	1.76	7.79 µM
